Measurements reported in ChEMBL document CHEMBL3132807, “Chemical motifs that redox cycle and their associated toxicity” (Medchemcomm, 2013).

Tests used:
[1] = system: THLE; test: Cytotoxicity against human THLE cells assessed as ATP depletion by CellTitre-Glo assay; assay type: functional, cell-based; settings: TDE = time-dependent effect
[2] = Cytotoxicity against human THLE cells assessed as ATP depletion after 4 hrs by CellTitre-Glo assay; assay type: functional, cell-based
[3] = Cytotoxicity against human THLE cells assessed as ATP depletion after 72 hrs by CellTitre-Glo assay; assay type: functional, cell-based
[4] = Cytotoxicity against human THLE cells assessed as ATP depletion after 24 hrs by CellTitre-Glo assay; assay type: functional, cell-based
[5] = Induction of ROS generation assessed as generation of H2O2 measured as oxidation of phenol red after 60 mins by phenol red assay; assay type: physicochemical

Structure (SMILES)	Activity [1]	EC50 [2] [µM]	EC50 [3] [µM]	EC50 [4] [µM]	EC50 at 60 min [5] [µM]
Cn1nc(-c2ccncc2)nc2c(=O)n(C)c(=O)nc1-2	tde	11.7	3.1	5.8	1
Cc1cc2nc3c(=O)[nH]c(=O)nc-3n(C[C@H](O)[C@H](O)[C@H](O)CO)c2cc1C [RIBOFLAVIN]	tde	> 300	> 300	> 300	129
CCn1cc(C(=O)O)c(=O)c2cc(F)c(N3CCNCC3)cc21 [NORFLOXACIN]	tde	> 300	> 300	> 300	> 1000
O=C1NC(=O)/C(=C\c2ccc(Cl)cc2)C2=C1CCCC2	–	–	–	–	0.5
Cn1nc(/C=C\c2ccccc2)nc2c(=O)n(C)c(=O)nc1-2	tde	4.8	6.8	5.9	1
Cn1nc(-c2ccccc2)cc2c(=O)n(C)c(=O)nc1-2	tde	> 300	> 300	> 300	> 1000
CCCCCc1ccc(/C=C2\C(=O)NC(=O)C3=C2CCCC3)cc1	–	–	–	–	9.2
Cn1nc(-c2ccccc2)nc2c(=O)n(C)c(=O)nc1-2	tde	9	7.4	4.5	2
O=C1NC(=O)/C(=C\c2ccc(O)cc2)C2=C1CCCC2	–	–	–	–	8.6
Cn1nc(-c2ccc([N+](=O)[O-])cc2)nc2c(=O)n(C)c(=O)nc1-2	tde	5.2	3.2	2.9	1
Cc1c2cc3c(ccc4ccccc43)oc-2nc(=O)c1C#N	tde	> 300	> 300	> 300	11
COc1ccc(-c2nc3c(=O)n(C)c(=O)nc-3n(C)n2)cc1	tde	9.6	7.2	6	2
Cn1nc(/C=C/c2ccccc2)nc2c(=O)n(C)c(=O)nc1-2	tde	1.3	1.7	1.2	1
CC1=CC(=O)c2ccccc2C1=O [MENADIONE]	tde	94	17.7	27.5	29
C[n+]1cc2c3c(ccc2c2ccc4cc5c(cc4c21)OCO5)OCO3 [SANGUINARIUM]	tde	1	0.93	0.89	513
O=C1NC(=O)/C(=C\c2ccccc2)C2=C1CCC2	tde	> 300	> 300	> 300	233
Nc1ccc2nc3c(=O)[nH]c(=O)nc-3[nH]c2c1	tde	264	245	250	110
C[n+]1ccc(-c2cc[n+](C)cc2)cc1 [PARAQUAT]	tde	> 300	> 300	> 300	> 1000
CCCc1nc2c(=O)n(C)c(=O)nc-2n(C)n1	tde	16.5	13	9.1	1
O=C1NC(=O)/C(=C\c2ccncc2)C2=C1CCCC2	–	–	–	–	95
COc1cc(/C=C2\C(=O)NC(=O)C3=C2CCCC3)cc(OC)c1OC	–	–	–	–	0.5
CCn1cc(C(=O)O)c(=O)c2ccc(C)nc21 [NALIDIXIC ACID]	tde	> 300	> 300	> 300	> 1000

Structure (SMILES)	Activity [1]	EC50 [2] [µM]	EC50 [3] [µM]	EC50 [4] [µM]	EC50 at 60 min [5] [µM]
Cn1ncnc2c(=O)n(C)c(=O)nc1-2	tde	2.7	3.2	2.1	1
NC(=O)N1C(=O)/C(=C(\O)c2ccc(F)s2)c2cc(F)c(Cl)cc21	tde	> 300	108	175	833
O=C1NC(=O)/C(=C\c2ccc(F)cc2)C2=C1CCCC2	–	–	–	–	60
O=C1C=C(Cl)C(=O)c2ccccc21	tde	21.1	37.4	13.8	2.5
Cn1nc(-c2cccnc2)nc2c(=O)n(C)c(=O)nc1-2	tde	5.2	2	2.1	1
CCOc1ccc2nc3c(=O)n(C)c(=O)nc-3sc2c1	tde	46	68	79	70
Cn1nc(-c2cccs2)nc2c(=O)n(C)c(=O)nc1-2	tde	2.4	3.1	2.9	2
O=C1NC(=O)/C(=C\c2ccco2)C2=C1CCCC2	–	–	–	–	18
O=C1NC(=O)/C(=C\c2ccc(C3CCCCC3)cc2)C2=C1CCCC2	–	–	–	–	121
O=C1NC(=O)/C(=C\c2ccc(Cl)cc2Cl)C2=C1CCCC2	–	–	–	–	236
O=C1NC(=O)/C(=C\c2ccccc2)C2=C1CCCC2 [TESIMIDE]	tde	> 300	> 300	> 300	26
Cn1c(=O)nc2sc3ccccc3nc-2c1=O	tde	10.6	8.2	9.9	151
Cc1cc(C)n(C)c2cccc(=O)c1-2	tde	> 300	> 300	> 300	33
O=c1[nH]c(=O)c2nc3ccccc3nc2[nH]1 [ALLOXAZINE]	tde	> 300	> 300	> 300	–
O=c1nc2[nH]c3ccccc3nc-2c(=O)[nH]1 [ALLOXAZINE]	–	–	–	–	226
O=c1[nH]c(=O)c2nccnc2[nH]1	tde	> 300	> 300	> 300	713
O=C1NC(=O)/C(=C\c2ccc(C(=O)O)cc2)C2=C1CCCC2	–	–	–	–	53
CC1=C(C)C(=O)c2ccccc2C1=O	tde	40.9	21.1	23.1	110
COc1cccc2c1C(=O)c1c(O)c3c(c(O)c1C2=O)C[C@@](O)(C(=O)CO)C[C@@H]3O[C@H]1C[C@H](N)[C@H](O)[C@H](C)O1 [DOXORUBICIN]	tde	215	0.53	1.8	179
CC(=O)N/C=C1/C(=O)NC(=O)C(C#N)=C1C	–	–	–	–	250
NC(=O)N1C(=O)/C(=C(\O)c2ccc(Cl)s2)c2cc(Cl)ccc21	tde	> 300	117	253	667
